# According to patent publication US7763626B2, “Compositions and method for enhancing the therapeutic activity of opiods in treatment of pain” (Trustees of Dartmouth College, priority 2004, dated 2010):
# Key:
# Assay type in all cases: in vivo, rat
# IL-6 protein = assay: Cytokine protein estimation by ELISA at L5 spinal cord; conditions: propentofylline 10 micrograms intrathecally for 5 days during induction of morphine tolerance
# Experimental: (§1) Quantitative determination of IL-1β, TNF-α and IL-6 protein was performed on the L5 spinal cord of the rats. […] Briefly, weighed sections of L5 spinal cord were homogenized in a homogenization buffer consisting of a protease inhibitor using the a Power Gen 125 tissue tearer (Fisher Scientific, Suwanee, Ga.). Samples were spun at 20,000×g for 30 minutes at 4° C. Supernatant was aliquoted and stored at −80° C. for future protein quantification. IL-1β and TNF-α (R&D Systems, Minneapolis, Minn.) and IL-6 (Biosource, Camarillo, Calif.) protein concentrations were determined utilizing the quantitative sandwich enzyme immunoassay.
# TNF-α protein = assay: as above; conditions: propentofylline 10 micrograms intrathecally for 5 days during induction of morphine tolerance
# Experimental: as §1
# IL-1β protein = assay: as above; conditions: propentofylline 10 micrograms intrathecally for 5 days during induction of morphine tolerance
# Experimental: as §1
# GFAP mRNA = assay: Real-time PCR of GFAP mRNA at L5 lumbar spinal cord
# Experimental: Total RNA was treated with DNase I (Ambion, Austin, Tex.) to remove DNA contamination before cDNA synthesis. The reverse transcription (RT) was carried out in a 100 μl total reaction volume containing RT buffer, dNTPs, multiscribe reverse transcriptase, RNase-free water and 10 μg of DNase-treated total RNA. The RT reaction was carried out at 25° C. for 10 minutes, 37° C. for 120 minutes, and 95° C. for 5 minutes. Real-time PCR analysis was performed using gene-specific primers and probes that were designed and blasted against GENBANK to confirm their species and gene specificity. […] The real-time PCR reactions were carried out using Platinum Taq DNA polymerase, 20 mM Tris HCl (pH 8.4), 50 mM KCl, 3 mM MgCl2, 200 μM dGTP, dCTP, and dATP, 400 μM of dUTP and 1 U uracyl DNA glycosylase (UDG), 900 nM forward and reverse primers, 300 nM TaqMan probe, and 10-fold dilution of cDNA (50 ng) from the RT step. Primers and probes for glyceraldehyde-3-phosphate (GADPH), GFAP and Mac-1 were obtained form Applied Biosystems (LaJolla, Calif.). The relative standard curves generated by plotting the threshold value versus the log of the amount of total cDNA added to the reaction (1-10000 pg) were used to compare the relative amount of target genes from control and chronic morphine-treated animals.
# IL-1β mRNA = assay: RNase protection assay, cytokine mRNA at L5 lumbar spinal cord; conditions: propentofylline 10 micrograms intrathecally for 5 days during induction of morphine tolerance
# Experimental: After behavioral testing for reactions to the combined treatment, rats were sacrificed and decapitated. An 18-gauge needle was inserted into the caudal end of the vertebral column and the spinal cord was expelled with ice-cold phosphate-buffered saline. The spinal cord was frozen immediately on dry ice and stored at −80° C. until homogenization. The L5 lumbar spinal cord was isolated from the intact frozen cord at the time of mRNA and protein quantification. Total RNA was isolated from the L5 spinal cord by the TRIzol extraction method (Invitrogen Corporation, Carlsbad, Calif).
# Assessment of the temporal cytokine mRNA expression in the L5 lumber spinal cord was performed using a Ribonuclease Protection Assay technique. A Multiprobe RPAse kit was used (Pharmingen, San Diego, Calif.). Total RNA (15 μg) was hybridized to ^32P-labeled antisense RNA probes transcribed using the rat cytokine-1 (rCK-1) multiprobe template set resulting in double-stranded target RNA. After Rnase digestion, protected RNA and probe were resolved on a denaturing polyacrylamide gel and visualized by overnight autoradiography. Quantitative image analysis was employed to compare mRNA levels based on band intensities for each cytokine. The intensity of each band was measured using image analysis software and assigned an arbitrary unit based on the measured intensity levels. The value for the normalized quantity for each band was obtained by dividing by the L32 house-keeping gene control. Individual mRNA concentration was calculated as the ratio of the expression compared with saline-treated animals in which normal values were weighted as 1.
# Male Sprague-Dawley rats = assay: L5 spinal nerve transection model, mechanical allodynia
# Experimental: Experiments were performed to determine how propentofylline-induced suppression of glial activation contribute to reduced behavioral hypersensitivity after nerve injury. In a preventative paradigm, 10 μg of propentofylline (Sigma) to male Sprague-Dawley rats in 40 μl of sterile saline, or saline vehicle alone was administered intrathecally (i.t.) by lumbar puncture at the L4/5 level under brief halothane anesthesia (n=6-8/group). Treatment began one hour prior to L5 spinal nerve transection and continued daily in the evening until day 4 or 12 post-transection. Rats received either an L5 spinal nerve transection or sham surgery on day 0. The development of mechanical allodynia was monitored as described above in the morning at approximately 15 hours post-propentofylline or saline injection. […]
# Mechanical sensitivity was measured as the frequency of foot withdrawals elicited by a defined mechanical stimulus. […]
# In blinded testing, rats were subjected to sequential series of 10 tactile stimulations to the dorsal surface of the ipsilateral hindpaw using […] von Frey filaments (Stoelting Co., WoodDale, Ill.) sequentially. The number of foot withdrawals to this normally non-noxious stimulus determined mechanical allodynia. Mechanical sensitivity was assessed by recording the total number of responses elicited during three successive trials separated by at least 10 minutes. […]
structure (smiles),measurement,setting,value
CCCn1cnc2c1c(=O)n(CCCCC(C)=O)c(=O)n2C [propentofylline],morphine-induced IL-6 protein levels,IL-6 protein,significantly attenuated
same,morphine-induced TNF-α protein levels,TNF-α protein,significantly attenuated
same,morphine-induced IL-1β protein levels,IL-1β protein,significantly attenuated
same,GFAP mRNA levels at the L5 lumbar spinal cord,"GFAP mRNA; compared to saline-treated controls, morphine 10 mg/kg twice daily 5 days, or propentofylline 10 micrograms intrathecally 5 days in saline-treated rats",no effect
same,chronic morphine-induced upregulation of GFAP,GFAP mRNA; propentofylline during the induction phase of morphine tolerance,significantly attenuated
same,morphine-induced mRNA upregulation for IL-1β,IL-1β mRNA,significantly attenuated
same,development of mechanical allodynia after L5 spinal nerve transection,"Male Sprague-Dawley rats; 10 μg i.t. daily from one hour prior to transection, 12 g Von Frey filament, all time points, vs L5 saline rats",robustly inhibited
same,mechanical allodynia after L5 spinal nerve transection compared with normal group,"Male Sprague-Dawley rats; 10 μg i.t. daily, day 5, 7, 9 and 12",no longer discernable from the normal group
